Like-named read-outs stand apart in the source and are kept apart here.
Key:
Type in all cases: cell-based, Mycobacterium tuberculosis
[1] = tested on: M. tuberculosis H37Rv; conditions: for Fold of reduction: RLU relative to buffer control; for MIC: concentration that reduces RLU by 90% (1 log), 96 hours
[2] = tested on: M. tuberculosis
Method: The validation of the Relative Light Unit assay (RLU) was carried out by comparing it to conventional Colony Forming Unit (CFU) assay. In this assay, the cells were exposed to the different concentrations of the peptide for 96 hours and then plated onto 7H10 plates. The plates were incubated at 37° C. for 30 days and the colonies were enumerated.

[3] = tested on: M. tuberculosis; remark: listed apart in the source
[4] = tested on: H37Rv expressing LUX; conditions: 6.25 micrograms/ml; ~0.1 OD600 and ~1.0 OD600; 96 hours
[5] = peptide 25 micrograms/ml, buffer control 53503
[6] = peptide 6.25 micrograms/ml, buffer control 75380

Substance	Fold of reduction ([1]; peptide 25 micrograms/ml)	RLU [1, 5]	MIC [1]	further results
SEQ ID NO: 14: plectasin variant, substitutions N5G + D9S + M13L + N17Q + A31T compared to SEQ ID NO: 2 (GFGCGGPWSEDDLQCHQHCKSIKGYKGGYCTKGGFVCKCY)	49.4	1083	–	MBC obtained by CFU ([2]; 96 hours exposure, plated on 7H10, 30 days): 6.25 micrograms/ml; Mode of action (bactericidal) ([2]; MIC by RLU equivalent to MBC by CFU): bactericidal; Inhibition of growth by OD600 ([3]; 6.25 micrograms/ml, T-25 flasks): completely inhibit the growth; MIC (=MBC) ([3]; confirmed by the assays of Examples 3 and 4 (CFU, OD600)): 6.25 micrograms/ml; Activity against early log and early stationary cells [4]: potent activity against organisms in both early log and early stationary phases of growth
SEQ ID NO: 17: plectasin variant, substitutions D9S + M13L + Q14R + K26R compared to SEQ ID NO: 2 (GFGCNGPWSEDDLRCHNHCKSIKGYRGGYCAKGGFVCKCY)	–	–	~6.25 micrograms/ml	Fold of reduction ([1]; peptide 6.25 micrograms/ml): 9.1; RLU [1, 6]: 8321
SEQ ID NO: 7: plectasin variant, substitutions Q14R + K20R compared to SEQ ID NO: 2 (GFGCNGPWDEDDMRCHNHCRSIKGYKGGYCAKGGFVCKCY)	40.0	1339	6.25 micrograms/ml	–
SEQ ID NO: 5: plectasin variant, substitution Q14F compared to SEQ ID NO: 2 (GFGCNGPWDEDDMFCHNHCKSIKGYKGGYCAKGGFVCKCY)	34.1	1567	–	–
plectasin [SEQ ID NO: 2, reference compound]	25.7	2070	around 25 micrograms/ml	–
SEQ ID NO: 11: plectasin variant, substitutions Q14R + K26R compared to SEQ ID NO: 2 (GFGCNGPWDEDDMRCHNHCKSIKGYRGGYCAKGGFVCKCY)	14.8	3604	–	–
SEQ ID NO: 18: plectasin variant, substitutions D9S + Q14R + K26R compared to SEQ ID NO: 2 (GFGCNGPWSEDDMRCHNHCKSIKGYRGGYCAKGGFVCKCY)	–	–	~6.25 micrograms/ml	Fold of reduction ([1]; peptide 6.25 micrograms/ml): 9.8; RLU [1, 6]: 7702
SEQ ID NO: 6: plectasin variant, substitutions Q14R + K26R + K38R compared to SEQ ID NO: 2 (GFGCNGPWDEDDMRCHNHCKSIKGYRGGYCAKGGFVCRCY)	11.9	4483	–	–
SEQ ID NO: 12: plectasin variant, substitutions N5S + D9S + M13L + Q14R + N17V + A31S compared to SEQ ID NO: 2 (GFGCSGPWSEDDLRCHVHCKSIKGYKGGYCSKGGFVCKCY)	13.7	3901	–	–
SEQ ID NO: 10: plectasin variant, substitutions M13K + K38R compared to SEQ ID NO: 2 (GFGCNGPWDEDDKQCHNHCKSIKGYKGGYCAKGGFVCRCY)	46.4	1152	–	–
SEQ ID NO: 16: plectasin variant, substitutions D9G + Q14R + K23R compared to SEQ ID NO: 2 (GFGCNGPWGEDDMRCHNHCKSIRGYKGGYCAKGGFVCKCY)	11.9	4495	–	–
SEQ ID NO: 8: plectasin variant, substitution Q14L compared to SEQ ID NO: 2 (GFGCNGPWDEDDMLCHNHCKSIKGYKGGYCAKGGFVCKCY)	24.9	2145	–	–
SEQ ID NO: 9: plectasin variant, substitutions N5R + M13V compared to SEQ ID NO: 2 (GFGCRGPWDEDDVQCHNHCKSIKGYKGGYCAKGGFVCKCY)	31.8	1685	6.25 micrograms/ml	–
SEQ ID NO: 3: plectasin variant, substitutions Q14K + K26R compared to SEQ ID NO: 2 (GFGCNGPWDEDDMKCHNHCKSIKGYRGGYCAKGGFVCKCY)	23.2	2310	–	–
SEQ ID NO: 19: plectasin variant, substitutions D9S + Q14K + K26R compared to SEQ ID NO: 2 (GFGCNGPWSEDDMKCHNHCKSIKGYRGGYCAKGGFVCKCY)	–	–	~6.25 micrograms/ml	Fold of reduction ([1]; peptide 6.25 micrograms/ml): 9.9; RLU [1, 6]: 7630
SEQ ID NO: 4: plectasin variant, substitution K26R compared to SEQ ID NO: 2 (GFGCNGPWDEDDMQCHNHCKSIKGYRGGYCAKGGFVCKCY)	28.1	1903	–	–
SEQ ID NO: 15: plectasin variant, substitutions D9N + M13L + Q14R compared to SEQ ID NO: 2 (GFGCNGPWNEDDLRCHNHCKSIKGYKGGYCAKGGFVCKCY)	12.9	4165	–	–
SEQ ID NO: 13: plectasin variant, substitutions N5G + M13L compared to SEQ ID NO: 2 (GFGCGGPWDEDDLQCHNHCKSIKGYKGGYCAKGGFVCKCY)	20.8	2576	–	–
SEQ ID NO: 20: plectasin variant, substitutions D9S + M13L + Q14K + V36L compared to SEQ ID NO: 2 (GFGCNGPWSEDDLKCHNHCKSIKGYKGGYCAKGGFLCKCY)	–	–	6.25 micrograms/ml	Fold of reduction ([1]; peptide 6.25 micrograms/ml): 14.1; RLU [1, 6]: 5355
